Measurements reported in US20070282007A1, “TREATMENT OF PAIN DISORDERS WITH trans 4-(3,4-DICHLOROPHENYL)-1,2,3,4-TETRAHYDRO-1-NAPHTHALENAMINE AND ITS FORMAMIDE” (SEPRACOR INC., priority 2006, published 2007).
Read-outs that look alike come from different tables or passages of the source.

Tests used:
[1] = target: T1, Norepinephrine (NE) uptake (Rattus norvegicus, UniProt Q63380); experiment: Functional uptake of radiolabeled NE into synaptosomes from rat hypothalamus; format: biochemical
T1 construct: from tissue; host or cells: synaptosomes from rat hypothalamus
Description: The 5-HT and NE assays were performed essentially as outlined in Perovic S. & Müller W. E. G., Arzneim.-Forsch.

[2] = target: T2, 5-HT1A (Homo sapiens, UniProt P08908); experiment: In vitro radioligand binding assay, 5-HT1A
T2 sequence (P08908 1-422): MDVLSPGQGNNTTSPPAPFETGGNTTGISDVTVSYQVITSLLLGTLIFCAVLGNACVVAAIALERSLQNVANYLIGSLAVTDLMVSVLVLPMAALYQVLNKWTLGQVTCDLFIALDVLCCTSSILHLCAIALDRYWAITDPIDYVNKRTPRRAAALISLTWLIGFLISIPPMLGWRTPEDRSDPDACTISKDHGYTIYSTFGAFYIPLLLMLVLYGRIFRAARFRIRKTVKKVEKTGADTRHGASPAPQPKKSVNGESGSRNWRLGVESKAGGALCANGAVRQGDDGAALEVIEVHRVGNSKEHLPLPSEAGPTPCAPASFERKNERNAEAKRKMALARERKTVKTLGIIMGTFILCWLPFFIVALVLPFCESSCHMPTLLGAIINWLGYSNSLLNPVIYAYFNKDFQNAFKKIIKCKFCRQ

[3] = target: T3, M5 (Homo sapiens, UniProt P08912); experiment: In vitro radioligand binding assay, M5
T3 sequence (P08912 1-532): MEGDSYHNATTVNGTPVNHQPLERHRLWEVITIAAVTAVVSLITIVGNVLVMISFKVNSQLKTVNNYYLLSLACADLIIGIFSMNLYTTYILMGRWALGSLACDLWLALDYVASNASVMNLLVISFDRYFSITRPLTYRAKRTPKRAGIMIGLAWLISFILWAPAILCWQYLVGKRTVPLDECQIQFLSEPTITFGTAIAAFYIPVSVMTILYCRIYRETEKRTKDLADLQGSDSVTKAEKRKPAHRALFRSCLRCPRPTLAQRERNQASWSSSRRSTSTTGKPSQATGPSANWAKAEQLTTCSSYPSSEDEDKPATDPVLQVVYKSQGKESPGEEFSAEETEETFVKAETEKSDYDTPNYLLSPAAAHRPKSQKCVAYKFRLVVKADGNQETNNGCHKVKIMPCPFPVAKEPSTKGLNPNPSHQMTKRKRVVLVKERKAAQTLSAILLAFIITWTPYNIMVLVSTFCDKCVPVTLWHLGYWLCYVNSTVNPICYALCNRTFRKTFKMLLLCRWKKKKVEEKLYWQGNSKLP

[4] = target: B2 (Homo sapiens, UniProt P30411); experiment: In vitro radioligand binding assay, B2
[5] = tested on: rats; experiment: Formalin paw test in the rat (late phase), flinches counted; format: in vivo
Description: Rats were given an intraplantar injection of 5% formalin (50 μl) into the posterior left paw. […] The number of flinches was counted for 15 minutes, beginning 20 minutes after injection of formalin. Eight rats were studied per group. The test was performed blind. […] Data were analyzed by comparing treated groups with vehicle control using unpaired Mann-Whitney U tests.

[6] = tested on: Rat SNL Model; experiment: SNL model of neuropathic pain, mechanical hyperalgesia testing; format: in vivo
Description: (§1) The animals were anesthetized with isoflurane, the left L5 transverse process was removed, and the L5 and L6 spinal nerves were tightly ligated with 6-0 silk suture. The wound was then closed with internal sutures and external staples. Wound clips were removed 10-11 days following surgery.
Mechanical hyperalgesia testing: Baseline, post-injury and post-treatment values for […] mechanical sensitivity were evaluated using a Paw Pressure Analgesymeter (7200, Ugo Basile, Comerio, Italy) which generates a linearly increasing mechanical force. The mechanical nociceptive stimulus was applied to the plantar surface of the hind paws by a dome-shaped plastic tip placed between the 3rd and 4th metatarsus. […] Mechanical thresholds were defined as the force in grams at the first pain behavior, which includes paw withdrawal, struggle and/or vocalization. Paw pressure test was performed on each hind paw for each animal. The mean and standard error of the mean (SEM) were determined for each paw, in each treatment group. Mechanical hyperalgesia was evaluated 24 days post-surgery.
(§2) Ten rats were studied per group and the tests were performed blind. (1R,4S)-4-(3,4-dichlorophenyl)-1,2,3,4-tetrahydro-1-naphthalenamine (P) was evaluated at 3 doses (5, 10 and 15 mg/kg), administered orally and compared with a vehicle control group. Gabapentin (100 mg/kg) and duloxetine (30 mg/kg) administered orally under the same experimental conditions, were used as comparator substances. Mechanical allodynia and hyperalgesia testing were conducted at baseline and 1, 2 and 4 hours after test article administration.

[7] = tested on: Rat SNL Model; experiment: SNL model of neuropathic pain, mechanical allodynia testing; format: in vivo
Description: as §1
Animals were placed on a perforated metallic platform and allowed to acclimate to their surroundings for a minimum of 30 minutes before testing. The mean and standard error of the mean (SEM) were determined for each animal in each treatment group. Since this stimulus is normally not considered painful, significant injury-induced increases in responsiveness in this test are interpreted as a measure of mechanical allodynia. Mechanical allodynia was evaluated 14 days post-surgery.
as §2

[8] = tested on: rats; experiment: Formalin test, second test with Automated Nociception Analyzer; format: in vivo, rat; conditions: automated detection; for Number of Flinches, Acute Phase (Mean ± SEM): 0-10 minutes after formalin; for Number of Flinches, Late Phase (Mean ± SEM): 10-60 minutes after formalin
Description: In a second test, flinching behaviors were measured for 90 minutes after formalin injection using an automated detection system. […] This device used a magnetic detection system to measure paw movements, called “flinches”. Small metal bands were attached to the left hind paw of rats just before placement into individual circular test chambers 30 minutes prior to formalin injection. […] In addition to duloxetine, morphine (6 mg/kg, subcutaneously) was used as a comparator substance. Animals were treated with morphine 30 minutes prior to the formalin injection. To initiate the experiment, the rats were injected with formalin subcutaneously on the dorsal surface of the left hind paw and placed in the test chambers. The instrument subsequently recorded rapid foot movements counted in one minute epochs.

[9] = target: 5-HT1B (Homo sapiens, UniProt P28222); experiment: In vitro radioligand binding assay, 5-HT1B
[10] = target: Na^+ Channel Site 2; experiment: In vitro radioligand binding assay, Na+ channel site 2
[11] = target: Ca^2+ Channel Verapamil Site; experiment: In vitro radioligand binding assay, Ca2+ channel verapamil site
[12] = target: Dopamine (DA) uptake (Rattus norvegicus, UniProt P23977); experiment: biochemical
[13] = target: T4, M3 receptor (Cavia porcellus, UniProt H0W1Z3); experiment: Carbachol-induced contraction of the isolated Guinea pig ileum; conditions: reference antagonist
T4 construct: from tissue; host or cells: isolated guinea pig ileum

[14] = target: T5, recombinant human Dopamine (DA) transporter (Homo sapiens, UniProt Q01959); experiment: Functional uptake of DA into cells expressing recombinant human transporters; format: cell-based; conditions: read-out: IC50 inhibition of functional uptake in human transporters, Dopamine (DA)
T5 construct: expressed in transfected cells

[15] = target: T6, recombinant human Norepinephrine (NE) transporter (Homo sapiens, UniProt P23975); experiment: Functional uptake of NE into cells expressing recombinant human transporters; format: cell-based; conditions: read-out: IC50 inhibition of functional uptake in human transporters, Norepinephrine (NE)
T6 construct: expressed in transfected cells

[16] = target: H2 (Homo sapiens, UniProt P25021); experiment: In vitro radioligand binding assay, H2
[17] = 30 mg/kg p.o. 60 min before the test
[18] = 128 mg/kg p.o. 60 min before the test

T1 sequence (Q63380 1-617): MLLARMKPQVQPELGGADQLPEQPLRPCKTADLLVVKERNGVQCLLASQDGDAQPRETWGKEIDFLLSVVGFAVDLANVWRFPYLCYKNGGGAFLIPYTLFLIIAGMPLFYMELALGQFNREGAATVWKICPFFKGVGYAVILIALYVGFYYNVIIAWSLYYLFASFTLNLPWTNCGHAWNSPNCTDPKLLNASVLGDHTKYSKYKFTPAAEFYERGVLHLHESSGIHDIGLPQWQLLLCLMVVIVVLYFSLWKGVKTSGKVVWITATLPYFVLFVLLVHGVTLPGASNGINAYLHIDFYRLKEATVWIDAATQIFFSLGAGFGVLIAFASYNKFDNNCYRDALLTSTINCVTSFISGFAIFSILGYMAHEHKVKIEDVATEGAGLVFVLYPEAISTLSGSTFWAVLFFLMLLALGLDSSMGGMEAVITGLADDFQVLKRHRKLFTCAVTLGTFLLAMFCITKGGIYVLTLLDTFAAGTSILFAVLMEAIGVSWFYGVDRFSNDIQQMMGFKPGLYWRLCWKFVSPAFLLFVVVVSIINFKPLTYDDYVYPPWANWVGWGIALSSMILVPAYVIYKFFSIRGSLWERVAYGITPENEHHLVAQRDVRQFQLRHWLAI
Dopamine (DA) uptake, sequence (P23977 whole entry): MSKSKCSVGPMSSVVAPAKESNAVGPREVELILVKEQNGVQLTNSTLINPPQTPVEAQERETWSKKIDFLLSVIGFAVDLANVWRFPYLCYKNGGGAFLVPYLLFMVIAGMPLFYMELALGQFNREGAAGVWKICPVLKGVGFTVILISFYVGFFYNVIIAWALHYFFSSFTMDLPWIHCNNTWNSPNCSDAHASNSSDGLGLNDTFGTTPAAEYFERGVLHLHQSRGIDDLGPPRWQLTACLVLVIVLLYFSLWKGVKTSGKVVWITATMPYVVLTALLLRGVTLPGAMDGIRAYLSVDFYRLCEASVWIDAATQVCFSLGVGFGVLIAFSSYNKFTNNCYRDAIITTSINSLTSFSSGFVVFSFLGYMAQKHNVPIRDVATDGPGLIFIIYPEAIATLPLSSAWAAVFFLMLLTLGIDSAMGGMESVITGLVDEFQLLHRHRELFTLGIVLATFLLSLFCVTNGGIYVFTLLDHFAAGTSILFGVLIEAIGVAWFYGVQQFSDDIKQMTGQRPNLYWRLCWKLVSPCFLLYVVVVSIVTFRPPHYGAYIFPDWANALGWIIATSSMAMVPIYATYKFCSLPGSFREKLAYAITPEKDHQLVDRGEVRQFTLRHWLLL
T4 sequence (H0W1Z3 1-590): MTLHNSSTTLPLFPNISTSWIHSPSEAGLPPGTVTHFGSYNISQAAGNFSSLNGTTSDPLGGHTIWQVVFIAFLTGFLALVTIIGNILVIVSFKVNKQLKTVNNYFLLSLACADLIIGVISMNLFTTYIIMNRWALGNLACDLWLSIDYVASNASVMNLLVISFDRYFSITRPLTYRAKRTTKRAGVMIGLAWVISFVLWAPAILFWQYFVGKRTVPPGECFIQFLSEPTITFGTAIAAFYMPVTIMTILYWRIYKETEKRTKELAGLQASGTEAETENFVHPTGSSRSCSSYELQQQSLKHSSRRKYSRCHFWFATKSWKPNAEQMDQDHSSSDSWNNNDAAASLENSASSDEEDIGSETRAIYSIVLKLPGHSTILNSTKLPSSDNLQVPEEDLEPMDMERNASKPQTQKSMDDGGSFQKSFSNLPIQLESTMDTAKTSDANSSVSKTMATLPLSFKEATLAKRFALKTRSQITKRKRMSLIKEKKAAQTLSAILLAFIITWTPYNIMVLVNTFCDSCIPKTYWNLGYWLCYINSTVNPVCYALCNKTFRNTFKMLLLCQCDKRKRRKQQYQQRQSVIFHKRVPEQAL
T6 sequence (P23975 whole entry): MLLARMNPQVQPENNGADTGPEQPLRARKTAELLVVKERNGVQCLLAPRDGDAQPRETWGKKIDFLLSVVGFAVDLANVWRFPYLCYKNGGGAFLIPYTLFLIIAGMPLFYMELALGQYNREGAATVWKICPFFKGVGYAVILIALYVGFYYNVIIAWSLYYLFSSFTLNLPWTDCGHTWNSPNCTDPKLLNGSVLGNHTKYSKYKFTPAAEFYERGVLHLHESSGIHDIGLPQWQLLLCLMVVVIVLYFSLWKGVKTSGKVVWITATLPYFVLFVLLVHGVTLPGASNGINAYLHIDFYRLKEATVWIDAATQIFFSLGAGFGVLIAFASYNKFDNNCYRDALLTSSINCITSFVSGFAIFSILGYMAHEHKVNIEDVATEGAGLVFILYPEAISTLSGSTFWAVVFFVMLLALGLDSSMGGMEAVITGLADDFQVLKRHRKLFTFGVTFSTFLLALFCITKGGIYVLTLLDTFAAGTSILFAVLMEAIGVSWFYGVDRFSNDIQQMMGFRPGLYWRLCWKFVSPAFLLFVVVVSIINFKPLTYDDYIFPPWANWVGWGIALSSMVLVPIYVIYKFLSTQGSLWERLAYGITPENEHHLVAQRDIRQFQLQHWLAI
H2, sequence (P25021 whole entry): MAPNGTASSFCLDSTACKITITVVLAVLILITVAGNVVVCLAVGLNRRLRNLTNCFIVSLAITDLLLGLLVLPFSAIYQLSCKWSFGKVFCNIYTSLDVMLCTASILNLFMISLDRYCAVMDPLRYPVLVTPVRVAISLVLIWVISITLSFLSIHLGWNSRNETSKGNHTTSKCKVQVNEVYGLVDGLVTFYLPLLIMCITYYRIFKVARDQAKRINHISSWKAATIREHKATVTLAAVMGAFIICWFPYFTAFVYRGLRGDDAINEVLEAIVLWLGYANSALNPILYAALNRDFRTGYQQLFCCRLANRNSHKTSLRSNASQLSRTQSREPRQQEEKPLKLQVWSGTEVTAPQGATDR
5-HT1B, sequence (P28222 whole entry, species assumed): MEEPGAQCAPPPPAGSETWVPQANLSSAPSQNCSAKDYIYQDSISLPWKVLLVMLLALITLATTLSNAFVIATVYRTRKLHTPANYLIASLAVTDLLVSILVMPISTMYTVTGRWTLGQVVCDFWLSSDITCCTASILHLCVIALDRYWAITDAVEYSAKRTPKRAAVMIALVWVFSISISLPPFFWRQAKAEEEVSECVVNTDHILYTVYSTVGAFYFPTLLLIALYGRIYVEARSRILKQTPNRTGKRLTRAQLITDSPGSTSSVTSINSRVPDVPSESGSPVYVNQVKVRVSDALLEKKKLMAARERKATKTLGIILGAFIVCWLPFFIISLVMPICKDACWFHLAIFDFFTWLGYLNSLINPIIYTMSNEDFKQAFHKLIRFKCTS
B2, sequence (P30411 whole entry): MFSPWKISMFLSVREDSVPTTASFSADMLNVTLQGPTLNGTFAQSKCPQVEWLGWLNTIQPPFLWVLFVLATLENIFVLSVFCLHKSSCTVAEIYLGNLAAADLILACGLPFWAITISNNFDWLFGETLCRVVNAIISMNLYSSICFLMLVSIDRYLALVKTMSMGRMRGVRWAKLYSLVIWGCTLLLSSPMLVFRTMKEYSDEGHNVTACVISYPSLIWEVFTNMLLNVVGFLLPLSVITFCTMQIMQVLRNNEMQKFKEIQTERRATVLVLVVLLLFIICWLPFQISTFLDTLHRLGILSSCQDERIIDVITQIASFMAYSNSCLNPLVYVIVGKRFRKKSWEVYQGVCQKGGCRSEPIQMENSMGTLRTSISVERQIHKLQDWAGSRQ
T5 sequence (Q01959 whole entry): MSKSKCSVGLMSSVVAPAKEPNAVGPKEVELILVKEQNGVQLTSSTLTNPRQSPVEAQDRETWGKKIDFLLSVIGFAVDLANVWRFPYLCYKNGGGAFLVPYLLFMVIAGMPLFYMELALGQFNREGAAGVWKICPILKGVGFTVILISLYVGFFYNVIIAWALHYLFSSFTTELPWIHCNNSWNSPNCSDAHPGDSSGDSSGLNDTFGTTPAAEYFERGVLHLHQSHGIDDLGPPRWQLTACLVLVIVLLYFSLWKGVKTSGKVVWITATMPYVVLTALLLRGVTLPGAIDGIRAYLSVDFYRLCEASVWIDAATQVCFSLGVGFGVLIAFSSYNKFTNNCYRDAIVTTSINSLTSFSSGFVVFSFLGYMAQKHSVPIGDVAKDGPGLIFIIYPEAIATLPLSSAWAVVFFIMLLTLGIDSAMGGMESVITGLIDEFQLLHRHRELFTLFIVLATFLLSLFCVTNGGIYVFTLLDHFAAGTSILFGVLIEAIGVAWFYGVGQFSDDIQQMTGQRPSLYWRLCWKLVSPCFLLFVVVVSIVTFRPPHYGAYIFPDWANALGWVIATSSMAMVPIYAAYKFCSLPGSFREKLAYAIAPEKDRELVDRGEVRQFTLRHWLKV

## CN(C)CCCC1(c2ccc(F)cc2)OCc2cc(C#N)ccc21 (stereo not shown) [Citalopram]
[1]
  IC50: 7.9 µM
[2]
  Ki: 15 µM
[3]; read-out: Ki, M5
  Ki: 29 µM
[4]
  Ki: > 100 µM

## CNCC[C@H](Oc1cccc2ccccc12)c1cccs1 [Duloxetine, reference compound]
[5]; [17]
  NUMBER OF FLINCHES (20 to 35 min after formalin), mean ± s.e.m.: 71.4 ± 17.2NS
  NUMBER OF FLINCHES, % change from control: −20%
[6]; 30 mg/kg PO, 0 h (Baseline)
  Mechanical Hyperalgesia, Paw Pressure Threshold (Mean ± SEM): 153 ± 9 g
[6]; 30 mg/kg PO, 1 h
  Mechanical Hyperalgesia, Paw Pressure Threshold (Mean ± SEM): 306 ± 30 g
[6]; 30 mg/kg PO, 2 h
  Mechanical Hyperalgesia, Paw Pressure Threshold (Mean ± SEM): 345 ± 22 g
[6]; 30 mg/kg PO, 4 h
  Mechanical Hyperalgesia, Paw Pressure Threshold (Mean ± SEM): 330 ± 25 g
[7]; 30 mg/kg PO, 0 h (Baseline)
  Mechanical Allodynia, Paw Withdrawal Threshold (Mean ± SEM): 2.6 ± 0.2 g
[7]; 30 mg/kg PO, 1 h
  Mechanical Allodynia, Paw Withdrawal Threshold (Mean ± SEM): 7.0 ± 0.5 g
[7]; 30 mg/kg PO, 2 h
  Mechanical Allodynia, Paw Withdrawal Threshold (Mean ± SEM): 7.9 ± 0.6 g
[7]; 30 mg/kg PO, 4 h
  Mechanical Allodynia, Paw Withdrawal Threshold (Mean ± SEM): 8.1 ± 0.6 g
[8]; 30 mg/kg PO
  Number of Flinches, Acute Phase (Mean ± SEM): 168 ± 24
  Number of Flinches, Late Phase (Mean ± SEM): 803 ± 112

## CNCCCN1c2ccccc2CCc2ccccc21 [Desipramine]
[9]
  Ki: 2.7 µM
[10]
  Ki: 0.91 µM
[11]
  Ki: 0.31 µM
[3]; read-out: Ki, M5
  Ki: 0.47 µM

## N[C@@H]1CC[C@@H](c2ccc(Cl)c(Cl)c2)c2ccccc21 (racemic) [1:1 mixture of Compounds P & Q, trans-4-(3,4-dichlorophenyl)-1,2,3,4-tetrahydro-1-napthalenamine]
[1]
  IC50: 0.0088 µM
[12]
  IC50: 0.0071 µM

## NCC1(CC(=O)O)CCCCC1 [Gabapentin, reference compound]
[6]; 100 mg/kg PO, 0 h (Baseline)
  Mechanical Hyperalgesia, Paw Pressure Threshold (Mean ± SEM): 135 ± 20 g
[6]; 100 mg/kg PO, 1 h
  Mechanical Hyperalgesia, Paw Pressure Threshold (Mean ± SEM): 219 ± 32 g
[6]; 100 mg/kg PO, 2 h
  Mechanical Hyperalgesia, Paw Pressure Threshold (Mean ± SEM): 236 ± 29 g
[6]; 100 mg/kg PO, 4 h
  Mechanical Hyperalgesia, Paw Pressure Threshold (Mean ± SEM): 255 ± 29 g
[7]; 100 mg/kg PO, 0 h (Baseline)
  Mechanical Allodynia, Paw Withdrawal Threshold (Mean ± SEM): 2.7 ± 0.1 g
[7]; 100 mg/kg PO, 1 h
  Mechanical Allodynia, Paw Withdrawal Threshold (Mean ± SEM): 6.6 ± 0.4 g
[7]; 100 mg/kg PO, 2 h
  Mechanical Allodynia, Paw Withdrawal Threshold (Mean ± SEM): 9.8 ± 0.5 g
[7]; 100 mg/kg PO, 4 h
  Mechanical Allodynia, Paw Withdrawal Threshold (Mean ± SEM): 6.2 ± 0.4 g

## C[N+]1(C)CCC(OC(=O)C(c2ccccc2)c2ccccc2)CC1.[I-] [Compound 4-DAMP, 4-DAMP, reference compound]
[13]
  pA2: pA2 = 9.2
[13]; read-out: IC50 for inhibition of carbachol-induced contraction of the Guinea Pig ileum
  IC50: 0.033 µM

## CC(NC(C)(C)C)C(=O)c1cccc(Cl)c1 (stereo not shown) [Bupropion, reference compound]
[1]
  IC50: 0.611 µM
[12]
  IC50: 0.294 µM

## CN1CC[C@]23c4c5ccc(O)c4O[C@H]2[C@@H](O)C=C[C@H]3[C@H]1C5 [Morphine, reference compound]
[5]; [18]
  NUMBER OF FLINCHES (20 to 35 min after formalin), mean ± s.e.m.: 0.0 ± 0.0
  NUMBER OF FLINCHES, % change from control: −100%
[8]; 100 mg/kg SC
  Number of Flinches, Acute Phase (Mean ± SEM): 36 ± 9
  Number of Flinches, Late Phase (Mean ± SEM): 32 ± 13

## N[C@H]1CC[C@H](c2ccc(Cl)c(Cl)c2)c2ccccc21 [Compound Q, (1S,4R)-trans 4-(3,4-dichlorophenyl)-1,2,3,4-tetrahydro-1-napthalenamine]
[14]
  IC50: 0.0144 µM
[1]
  IC50: 0.035 µM
[12]
  IC50: 0.019 µM
[15]
  IC50: 0.0165 µM

## COc1ccc(C(CN(C)C)C2(O)CCCCC2)cc1 (stereo not shown) [Venlafaxine]
[16]
  Ki: 89 µM
[10]
  Ki: 12 µM
[11]
  Ki: 4.8 µM
[3]
  Ki: > 100 µM
